{
  "source": "ChEMBL document CHEMBL1201862",
  "about": "“PubChem BioAssay data set” (2004)",
  "key": {"[1]": {"target": "T1, Histone-lysine N-methyltransferase NSD2 (Homo sapiens, UniProt O96028)", "T1 sequence (O96028 whole entry)": "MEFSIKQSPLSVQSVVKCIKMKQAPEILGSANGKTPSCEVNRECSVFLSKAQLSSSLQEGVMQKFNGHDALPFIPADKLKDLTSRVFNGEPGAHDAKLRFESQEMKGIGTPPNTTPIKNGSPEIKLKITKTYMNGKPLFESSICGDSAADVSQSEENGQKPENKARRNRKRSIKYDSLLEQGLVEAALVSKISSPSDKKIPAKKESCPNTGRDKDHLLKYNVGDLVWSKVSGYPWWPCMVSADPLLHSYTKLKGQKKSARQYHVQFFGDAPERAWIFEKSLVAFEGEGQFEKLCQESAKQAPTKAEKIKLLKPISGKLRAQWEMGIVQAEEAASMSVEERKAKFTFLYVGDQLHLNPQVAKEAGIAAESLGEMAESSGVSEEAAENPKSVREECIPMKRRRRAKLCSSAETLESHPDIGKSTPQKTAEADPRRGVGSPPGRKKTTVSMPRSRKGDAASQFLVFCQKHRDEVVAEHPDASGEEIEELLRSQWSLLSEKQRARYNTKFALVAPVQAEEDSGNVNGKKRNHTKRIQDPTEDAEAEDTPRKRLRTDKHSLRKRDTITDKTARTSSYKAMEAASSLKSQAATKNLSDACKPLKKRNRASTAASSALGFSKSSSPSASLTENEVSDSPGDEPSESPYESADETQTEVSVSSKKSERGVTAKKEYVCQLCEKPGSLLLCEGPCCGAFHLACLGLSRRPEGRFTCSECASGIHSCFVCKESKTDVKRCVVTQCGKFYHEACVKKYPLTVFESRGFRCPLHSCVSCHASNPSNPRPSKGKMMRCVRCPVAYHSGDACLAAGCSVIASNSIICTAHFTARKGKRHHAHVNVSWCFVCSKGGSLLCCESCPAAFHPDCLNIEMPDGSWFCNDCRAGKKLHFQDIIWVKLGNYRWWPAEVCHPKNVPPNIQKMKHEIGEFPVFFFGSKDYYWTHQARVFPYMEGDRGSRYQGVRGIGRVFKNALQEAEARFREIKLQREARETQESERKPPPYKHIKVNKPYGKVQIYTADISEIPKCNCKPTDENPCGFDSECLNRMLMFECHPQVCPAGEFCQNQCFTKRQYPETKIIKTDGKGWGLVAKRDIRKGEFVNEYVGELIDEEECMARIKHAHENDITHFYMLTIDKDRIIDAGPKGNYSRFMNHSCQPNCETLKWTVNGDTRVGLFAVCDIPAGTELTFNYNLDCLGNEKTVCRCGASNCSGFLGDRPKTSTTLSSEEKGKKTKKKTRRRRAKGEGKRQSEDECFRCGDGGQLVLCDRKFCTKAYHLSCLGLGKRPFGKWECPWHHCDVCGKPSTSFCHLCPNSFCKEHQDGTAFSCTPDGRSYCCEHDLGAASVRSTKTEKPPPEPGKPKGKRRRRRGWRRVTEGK", "format": "biochemical"}, "[2]": {"experiment": "inhibitors of firefly luciferase expression or activity, dose response, H4 neuroglioma cells, luminescence (AID 1990)", "format": "functional, cell-based"}, "[3]": {"experiment": "Luminescence Cell-Based Dose Response HTS to Identify Inhibitors of 5'UTR Stem-Loop Driven Prion Protein mRNA Translation in H4 Neuroglioblastoma Cells. [Related pubchem assays: 1827 (Project Summary), 1813 (Primary HTS)]", "format": "functional"}, "[4]": {"target": "T2, Alkaline phosphatase, tissue-nonspecific isozyme (Homo sapiens, UniProt P05186)", "T2 sequence (P05186 whole entry)": "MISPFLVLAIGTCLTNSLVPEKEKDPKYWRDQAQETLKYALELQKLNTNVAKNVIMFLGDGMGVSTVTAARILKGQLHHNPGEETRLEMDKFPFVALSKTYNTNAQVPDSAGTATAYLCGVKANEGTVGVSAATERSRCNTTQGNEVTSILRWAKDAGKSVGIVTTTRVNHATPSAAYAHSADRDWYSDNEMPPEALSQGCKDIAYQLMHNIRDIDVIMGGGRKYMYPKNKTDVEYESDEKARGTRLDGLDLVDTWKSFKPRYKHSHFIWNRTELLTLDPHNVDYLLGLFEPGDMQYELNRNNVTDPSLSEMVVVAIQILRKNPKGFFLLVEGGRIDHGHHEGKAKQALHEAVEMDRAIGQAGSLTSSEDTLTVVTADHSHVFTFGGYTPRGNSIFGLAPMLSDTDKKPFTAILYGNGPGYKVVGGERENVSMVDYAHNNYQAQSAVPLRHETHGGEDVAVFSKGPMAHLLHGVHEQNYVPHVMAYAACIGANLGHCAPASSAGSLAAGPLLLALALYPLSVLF", "experiment": "TNAP enzyme activators, dose response, selectivity assay for human IAP activator project, biochemical, TNAP isozyme, human IAP uHTS hits (AID 488886);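 further: potency of compounds raising TNAP activity as a selectivity check on IAP activators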", "format": "functional"}, "[5]": {"target": "Luciferin 4-monooxygenase (Photinus pyralis, UniProt P08659)", "sequence (P08659 whole entry)": "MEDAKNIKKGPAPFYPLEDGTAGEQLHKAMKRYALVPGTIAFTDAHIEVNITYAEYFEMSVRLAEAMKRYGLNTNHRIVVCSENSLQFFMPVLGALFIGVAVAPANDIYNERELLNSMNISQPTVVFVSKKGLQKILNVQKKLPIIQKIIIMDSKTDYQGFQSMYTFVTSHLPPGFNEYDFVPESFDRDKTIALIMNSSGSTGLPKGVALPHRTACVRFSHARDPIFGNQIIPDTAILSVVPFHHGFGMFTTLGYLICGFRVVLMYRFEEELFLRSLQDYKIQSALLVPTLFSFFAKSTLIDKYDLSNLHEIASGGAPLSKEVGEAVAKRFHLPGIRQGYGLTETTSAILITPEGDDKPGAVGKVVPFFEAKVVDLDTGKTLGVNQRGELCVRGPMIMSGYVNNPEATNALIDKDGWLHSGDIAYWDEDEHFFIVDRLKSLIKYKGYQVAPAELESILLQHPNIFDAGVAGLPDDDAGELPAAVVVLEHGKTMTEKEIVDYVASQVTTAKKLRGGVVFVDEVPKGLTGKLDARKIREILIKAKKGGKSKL", "experiment": "Counter Screen for Luciferase-based Assay Positives. [Related pubchem assays: 620, 618, 411 ]"}, "[6]": {"experiment": "microbe, parasite or virus in culture", "format": "functional", "conditions": "Mycobacterium tuberculosis"}, "HT-1080": {"system": "HT-1080", "experiment": "cytotoxicity in HT1080 fibrosarcoma cells, cell-based, fluorescence readout (AID 620)", "format": "functional", "conditions": "Homo sapiens"}, "[7]": {"experiment": "THP-1 cell cytotoxicity, dose response, cytotoxicity control for non-replicating M. tuberculosis project (AID 489025)", "format": "functional"}, "[8]": {"experiment": "Vero E6 cell cytotoxicity, dose response, cytotoxicity control for non-replicating M. tuberculosis project, secondary assay (AID 492998)", "format": "functional, VeroE6", "conditions": "Vero C1008"}, "Nonstructural protein 1": {"target": "Nonstructural protein 1 (Influenza A virus, UniProt Q194T2)", "sequence (Q194T2 whole entry)": "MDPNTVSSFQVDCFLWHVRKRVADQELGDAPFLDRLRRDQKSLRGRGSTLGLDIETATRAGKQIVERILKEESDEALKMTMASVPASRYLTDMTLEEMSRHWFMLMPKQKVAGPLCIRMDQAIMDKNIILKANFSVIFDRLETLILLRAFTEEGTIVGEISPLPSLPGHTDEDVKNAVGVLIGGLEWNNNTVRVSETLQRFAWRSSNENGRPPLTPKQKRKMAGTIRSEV", "format": "functional, Influenza A virus (A/California/07/2009(H1N1))"}, "[9]": {"experiment": "Intein inhibitors as potential Tuberculosis drugs, a cytotoxicity screen. [Related pubchem assays (depositor defined):AID2221, AID2223, AID434968, AID435010, AID449749, AID449750, AID489010]", "format": "functional"}, "[10]": {"experiment": "inhibitors of intracellular T. cruzi replication, confirmation, NIH3T3 host cells, beta-gal luminescence (AID 2044);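 further: intracellular parasites grown in NIH/3T3 mouse fibroblasts as host cells; luminescent beta-galactosidase reporter signal from transgenic T. cruzi replicating inside host cells; inhibitors lower the luminescence signal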", "format": "functional, cell-based"}, "HEK293": {"system": "HEK293", "experiment": "SAR Analysis of small molecule inhibitors of T-cell specific antigen receptor-induced NF-kB activation in a HEK-293T cell line using a luminescence assay - Set 2. [Related pubchem assays (depositor defined):AID435003, AID435012, AID489026]", "format": "functional, cell-based", "conditions": "Homo sapiens"}, "[11]": {"experiment": "HepG2 cell cytotoxicity, dose response, cytotoxicity control for Shn3 inhibitor project, CellTiter-Glo, cherry-picked (AID 624134)", "format": "functional, cell-based"}, "[12]": {"experiment": "cytotoxicity in COV362 ovarian cancer cells, dose response, cytotoxicity control for PAX8 inhibitor project, cell-based, plate reader, dry powder, SA12 (AID 743144)", "format": "functional"}, "[13]": {"experiment": "IGROV1 ovarian cancer cell cytotoxicity, dose response, PAX8 inhibitor project, plate reader, dry powder samples (AID 743043)", "format": "functional, cell-based", "conditions": "IGROV-1"}, "[14]": {"experiment": "cytotoxicity in OVCAR4 cells, dose response, cytotoxicity control for PAX8 inhibitor project, cell-based, plate reader, dry powder, SA11 (AID 743150)", "format": "functional", "conditions": "OVCAR-4"}, "[15]": {"experiment": "cytotoxicity in OV-90 ovarian cancer cells, dose response, PAX8 inhibitor project, cell-based, plate reader, dry powder, SA8 (AID 743149)", "format": "functional"}},
  "note": "Activity calls are given as the source filed them.",
  "data": [
    {"smiles": "COc1ccc(-n2c3nc4ccccc4nc3c3c(=N)oc(C)nc32)cc1", "values": [
      {"measurement": "AC50", "setting": "[1]", "result": "> 20 µM (inactive)"}
    ]},
    {"smiles": "O=C(/C=C/c1cccs1)NC(=S)NNC(=O)c1ccccc1O", "values": [
      {"measurement": "EC50", "setting": "[2]", "result": "> 120 µM (not active)"},
      {"measurement": "EC50", "setting": "[3]", "result": "9.65 µM (active)"},
      {"measurement": "EC50", "setting": "[4]", "result": "11.8 µM (active)"}
    ]},
    {"smiles": "O=C(N/N=C1\\C/C(=N\\NC(=O)c2ccncc2)c2ccccc21)c1ccncc1", "values": [
      {"measurement": "AC50", "setting": "[1]", "result": "4.72 µM (active)"}
    ]},
    {"smiles": "CC(=O)N(Cc1ccc(F)cc1)C1=C(NCCc2ccccc2)C(=O)c2ccccc2C1=O", "values": [
      {"measurement": "EC50", "setting": "[5]", "result": "7.95 µM (active)"},
      {"measurement": "CC50", "setting": "[6]", "result": "10.9 µM (active)"},
      {"measurement": "EC50", "setting": "HT-1080", "result": "15.6 µM (active)"},
      {"measurement": "CC50", "setting": "[7]", "result": "0.67 µM (active)"},
      {"measurement": "CC50", "setting": "[8]", "result": "7 µM (active)"},
      {"measurement": "IC50", "setting": "Nonstructural protein 1", "result": "32.2 µM (active)"},
      {"measurement": "CC50", "setting": "[9]", "result": "5.56 µM (active)"}
    ]},
    {"smiles": "CCCCC(=O)NC(c1ccccc1)c1ccc2cccnc2c1O", "note": "(centres undefined)", "values": [
      {"measurement": "EC50", "setting": "[10]", "result": "0.502 µM (active)"},
      {"measurement": "IC50", "setting": "HEK293", "result": "8.62 µM (active)"},
      {"measurement": "AC50", "setting": "[11]", "result": "2.44 µM (active)"},
      {"measurement": "AC50", "setting": "[12]", "result": "3.28 µM (active)"},
      {"measurement": "AC50", "setting": "[13]", "result": "5.47 µM (active)"},
      {"measurement": "AC50", "setting": "[14]", "result": "9.22 µM (active)"},
      {"measurement": "AC50", "setting": "[15]", "result": "3.88 µM (active)"}
    ]}
  ]
}
